Laboratory results as given in patent US4665058A, “Compositions and method of treatment for sickle cell anemia” (The University of Kentucky Research Foundation, priority 1985, dated 1987).
Where two headings read alike, the source gives them in different places. Positions of bridges follow the written chain, without caps; N, C: chain ends. No end group written: not given here.

How the values were obtained:
[1] = at appropriate levels in the blood stream; cited from earlier work
[2] = test system: experimental animals; details: micromolar levels; cited from earlier work
[3] = test system: sickle red blood cells; details: cited from earlier work
[4] = test system: sickle patients; details: low sodium diet; cited from earlier work
[5] = Safety observation in rats (behavior, gross examination, histology); format: in vivo
Procedure: (§1) An animal study was then conducted to determine the absorption and elimination and characteristics of the phlorizin benzylazide and the resulting level of safety. Three adult rats of approximately 450 grams each were injected intraperitoneally at zero time in 1, 2 and 3 mg doses of tritiated phlorizin benzylazide (875,000 cpm/mg). Thereafter, serial tail blood samples were taken at varying times and analyzed for tritium. Maximal absorption of the compound from the peritoneal compartment was slow (note FIG. 5) and maximum blood level concentrations were obtained only after about 20 hours. The initial very rapid entry and elimination of a small fraction of the radioactivity was probably tritiated H2 O and other radioactive impurities. […] The absorption rate constant was estimated to be 0.07 hr^-1. […] This feature could, of course, offer advantages for therapy in a sickle cell crisis wherein long term effectiveness is desired.

[6] = test system: human red blood cells; assay: Red cell swelling / mean cell volume (Coulter Counter); format: cell-based
Procedure: (§2) Human red blood cells were obtained by venepuncture into Na citrate or EDTA vacutainers. They were used directly or stored in serum at 4° C. for various times. Serum and leucocytes were removed by siphoning and the settled red blood cells were washed once and finally made to a 0.15% suspension with isotonic NaCl containing 5 mM KH2 PO4 (pH 6.2). These cells were kept at 2° C. for selected periods of time during a first incubation. From this point on, all experiments were performed in subdued light to protect the light-sensitive phlorizin benzylazide. The phlorizin benzylazide obtained from the synthesis described above was added at the desired concentrations, and during this variable temperature second incubation (2°-4° C. in presence of phlorizin benzylazide), the turbidity of the cell suspension was monitored at 610 nm with a continuously recording spectrophotometer to measure hemolysis. A relatively constant level of absorbance of light indicates decreased hemolysis occurring at the lower dosage and this was verified by concomitant counting of cells with a hemacytometer. Some typical data are shown in FIG. 1 showing the change in absorbance of light (note axis A) when the drug was added (at zero time).
In these experiments (n=2) red cells had been stored in serum for 30 hours, and experienced a first incubation for 60 min at 4° C. and a second incubation with 12.5 μM phlorizin benzylazide at 4° C. for 5 and 10 min. […] The Coulter Counter, an automated instrument which determines the number and volume of cells passing through an analysis chamber, was used to make these measurements.

[7] = test system: sickle red blood cells; assay: Inhibition of sickling induced by deoxygenation in vitro (whole blood of sickle cell disease patients, phase microscopy); format: cell-based, human; details: 12.5 μM, 37° C.
Procedure: Whole blood was obtained from several volunteer sickle cell disease patients and was stored for several days at 4° C. […] Instead, whole blood was diluted into pre-warmed (37° C.) isotonic phosphate-buffered saline (± phlorizin benzylazide, 12.5 μM) which was then deoxygenated by continuous passage of an 100% Argon stream (1 liter/min) over a rotating thin film of the suspended cells. Aliquots were periodically taken, without O2 exposure, and fixed in 1% glutaraldehyde. These samples were then examined under phase microscopy for the degree of sickling by counting fields of at least 100 cells using a single blind, experimental protocol.
The data shown in FIG. 4 illustrate that without phlorizin benzylazide present, about 35-40% of the cells from these patients assumed the typical sickle shape (only cells having a 3:1, length:width ratio were considered to be sickled); whereas, with the phlorizin benzylazide, the deoxygenation caused a maximum increase of 5% more than the 10% of cells already sickled at zero time. Actually, the effect of phlorizin benzylazide is even more dramatic. […] The 10-15% sickled cells present at zero time are probably the so-called irreversibly sickled cells (ISC).

[8] = test system: sugar transporter; assay: Interaction with the sugar (glucose) transporter of human red blood cells; format: biochemical
Text: (§3) From the above, it is clear that a need exists for a safe, effective and clinically useful compound for the treatment of sickle cell anemia. […] After allowing the compound to associate with its specific membrane receptor, activation with light was expected to result in relatively specific, covalent, irreversible labeling of the transporter.

[9] = Hemolysis of normal human red blood cells (turbidity at 610 nm); format: cell-based; details: human, red blood cells, cells 2 hours old, 30 min incubation, approx. 4° C., within 700 sec, n=4
Procedure: as §2
(§4) The dose-response curve of phlorizin benzylazide acting as a hemolytic agent of normal cells is shown in FIG. 3 and the following table:
(§5) In FIG. 3, potency is expressed as the ratio, % hemolysis/t1/2, where t1/2 represents the time (seconds) required to achieve 50% of the total hemolysis produced by the particular concentration of the compound within the time of our measurements (700 sec). The cells used for these experiments were 2 hours old, and subjected to an incubation for 30 minutes before the addition of phlorizin benzylazide and continuing thereafter at approximately 4° C. (n=4). […] Thus, this blood level concentration provides anti-sickling action by reducing the concentration of hemoglobin S with an influx of water and/or salt into the cells. Further, this is accomplished with little or no red blood cell lysis and, therefore, minimum adverse side effects.

[10] = test system: normal human red blood cells; assay: as above; format: cell-based; details: for t1/2 (time required to achieve 50% of the total hemolysis): approx. 4° C., n=4
Procedure: as §2, §4, §5

[11] = Absorption and elimination of tritiated compound in rats (blood tritium after intraperitoneal injection); format: in vivo; details: for Cmax: rat approx. 450 g, read-out: peak concentration in the blood
Procedure: as §1

[12] = test system: normal human red blood cells; assay: Initial photoaffinity-labeling experiments: effect on red blood cells before illumination; format: cell-based; details: isotonic buffer; time and drug dose-dependent
Text: as §3

[13] = 12.5 μM, 4° C., 5 and 10 min, n=2 (FIG. 2)
[14] = 16 (head: κ M) phlorizin benzylazide
[15] = 31 (head: κ M) phlorizin benzylazide
[16] = 62 (head: κ M) phlorizin benzylazide

O=C(CCc1ccc(O)cc1)c1c(O)cc(O)cc1O [phloretin]
toxic effects [1]: toxic effects at all sites in the body

CC[C@@]1([C@@H]2O[C@@H]([C@H]3O[C@@](O)(CO)[C@H](C)C[C@@H]3C)C[C@@H]2C)CC[C@H]([C@]2(C)CC[C@]3(C[C@H](O)[C@@H](C)[C@@H]([C@@H](C)[C@@H](OC)[C@H](C)C(=O)O)O3)O2)O1 [Monensin]
toxicity [2]: highly toxic
deformability of the red blood cell [3]: some improvemement in the deformability of the red blood cell

anti-diuretic hormone: anti-diuretic hormone given to sickle patients on a low sodium diet to reduce plasma Na+-osmolality (CYFQNCPRG-NH2; disulfide 1-6; UniProt P01185 20-28, looked up)
clinical success (reduction of plasma Na+ osmolality / cell hemoglobin S concentration) [4]: very limited success

[N-]=[N+]=Nc1ccc(Cc2c(O)cc(O[C@@H]3O[C@H](CO)[C@@H](O)[C@H](O)[C@H]3O)c(C(=O)CCc3ccc(O)cc3)c2O)cc1 [phlorizin benzylazide]
gross examination of all tissues ([5]; rat, 1, 2 and 3 mg intraperitoneal): unremarkable
behavioral abnormalities ([5]; rat, 1, 2 and 3 mg intraperitoneal, 5 days (lowest dosage) or 7 weeks): None of the animals exhibited any unusual behavioral abnormalities
histological examination of the liver and kidney ([5]; rat, two older animals (7 weeks)): no pathology
lysis during swelling experiment [6, 13]: essentially no lysis
mean cell volume [6, 13]: a time dependent increase in mean cell volume
cell swelling ([6]; low phlorizin benzylazide levels, approx. 4° C.): cell swelling occurred
cell shape on deoxygenation ([7]; 100% Argon): a uniform spherocytosis was induced in most cells
maximum increase of sickled cells on deoxygenation, over the 10% already sickled at zero time ([7]; 100% Argon, without compound about 35-40% sickled (FIG. 4)): 5%
hemolysis in the deoxygenation experiment ([7]; Example 2): no significant hemolysis
affinity for the sugar transporter ([8]; subdued light): high, but reversible
inhibition of the transfer mechanism ([8]; sugar transporter): potent inhibitor
hemolysis at 4 µM ([9]; 4 (head: κ M) phlorizin benzylazide): 0%
hemolysis at 8 µM ([9]; 8 (head: κ M) phlorizin benzylazide): 0%
hemolysis at 16 µM [9, 14]: 31 ± 8.6%
hemolysis at 31 µM [9, 15]: 41 ± 9.6%
hemolysis at 62 µM [9, 16]: 66 ± 8%
t1/2 (time required to achieve 50% of the total hemolysis) [10, 14]: 7.5 min
t1/2 (time required to achieve 50% of the total hemolysis) [10, 15]: 4.33 min
t1/2 (time required to achieve 50% of the total hemolysis) [10, 16]: 3.88 min
cell lysis ([10]; concentrations below 10 μM): no cell lysis was observed
cell lysis, extent and rate (FIG. 1) ([10]; higher vs lower level of phlorizin benzylazide, 2°-4° C.): a greater percentage of cell lysis (an absorbance of 0.087 represents 100% lysis) but the rate at which the cells burst was much faster
Cmax ([11]; intraperitoneal, 1 mg): 2.5 µM
Cmax ([11]; intraperitoneal, 2 mg): 5.1 µM
Cmax ([11]; intraperitoneal, 3 mg): 6.3 µM
elimination process ([11]; rat, intraperitoneal): first order process
mean half life (elimination) ([11]; rat, intraperitoneal): 75 h
maximal absorption from the peritoneal compartment ([11]; rat, intraperitoneal (FIG. 5)): slow
time of maximum blood level concentration ([11]; rat, intraperitoneal, 1, 2 and 3 mg): about 20 hours
absorption rate constant ([11]; rat, intraperitoneal, estimated): 0.07 h⁻¹
effect on red blood cells before illumination [12]: the red blood cells were found to swell and, in a time and drug dose-dependent manner, burst even in an isotonic buffer
